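Each compound was tested at five concentrations against cells in 96-well plates for 48 hours. Abbreviation: GI50, concentration required for 50% inhibition of growth.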 Calls of active or inactive are those of the source. Cut-off read from the data, not from the text of the source: active = GI50 up to about 1.1 µM and inactive = higher.
Key:
Experiment in all cases: DTP human tumour cell line panel, 48 h
KM12 = tested on: KM12
UACC-257 = tested on: UACC-257
SF-539 = tested on: SF-539
MDA-MB-435 = tested on: MDA-MB-435
NCI-H522 = tested on: NCI-H522
ACHN = tested on: ACHN
HL-60 = tested on: HL-60
CCRF-CEM = tested on: CCRF-CEM
EKVX = tested on: EKVX
PC-3 = tested on: PC-3
K562 = tested on: K562
UACC-62 = tested on: UACC-62
SF-268 = tested on: SF-268
MDA-N = tested on: MDA-N
SW-620 = tested on: SW-620
NCI-H23 = tested on: NCI-H23
SK-OV-3 = tested on: SK-OV-3
SK-MEL-5 = tested on: SK-MEL-5
SR = tested on: SR
RPMI-8226 = tested on: RPMI-8226
SNB-75 = tested on: SNB-75
OVCAR-8 = tested on: OVCAR-8
786-0 = tested on: 786-0
BT-549 = tested on: BT-549
MCF7 = tested on: MCF7
SF-295 = tested on: SF-295
LOX IMVI = tested on: LOX IMVI
HOP-92 = tested on: HOP-92
MDA-MB-231 = tested on: MDA-MB-231
HCT-116 = tested on: HCT-116
SK-MEL-2 = tested on: SK-MEL-2
UO-31 = tested on: UO-31
SN12C = tested on: SN12C
NCI-H226 = tested on: NCI-H226
SK-MEL-28 = tested on: SK-MEL-28
HT-29 = tested on: HT-29
HCT-15 = tested on: HCT-15
HCC 2998 = tested on: HCC 2998
NCI-H460 = tested on: NCI-H460
OVCAR-3 = tested on: OVCAR-3
MOLT-4 = tested on: MOLT-4
CAKI-1 = tested on: CAKI-1
A498 = tested on: A498
IGROV-1 = tested on: IGROV-1
DU-145 = tested on: DU-145
A549 = tested on: A549
M14 = tested on: M14
OVCAR-5 = tested on: OVCAR-5
Malme-3M = tested on: Malme-3M
T47D = tested on: T47D
TK-10 = tested on: TK-10
NCI/ADR-RES = tested on: NCI/ADR-RES
HOP-62 = tested on: HOP-62
SNB-19 = tested on: SNB-19
RXF 393 = tested on: RXF 393
Hs-578T = tested on: Hs-578T
U-251 = tested on: U-251
COLO 205 = tested on: COLO 205
OVCAR-4 = tested on: OVCAR-4

## C=C1CCC(O)C/C1=C/C=C1\CCCC2(C)C1CCC2C(C)CCCC(C)C (stereo not drawn)
KM12
  GI50: 20.6 µM (inactive)
UACC-257
  GI50: 17 µM (inactive)
SF-539
  GI50: 20.1 µM (inactive)
MDA-MB-435
  GI50: 16.3 µM (inactive)
NCI-H522
  GI50: 17.5 µM (inactive)
ACHN
  GI50: 16 µM (inactive)
HL-60
  GI50: 23.2 µM (inactive)
CCRF-CEM
  GI50: 24.5 µM (inactive)
EKVX
  GI50: 19 µM (inactive)
PC-3
  GI50: 18.8 µM (inactive)
K562
  GI50: 21.2 µM (inactive)
UACC-62
  GI50: 18.8 µM (inactive)
SF-268
  GI50: 23 µM (inactive)
MDA-N
  GI50: 18 µM (inactive)
SW-620
  GI50: 16.7 µM (inactive)
NCI-H23
  GI50: 18.5 µM (inactive)
SK-OV-3
  GI50: 22.8 µM (inactive)
SK-MEL-5
  GI50: 19.4 µM (inactive)
SR
  GI50: 18.5 µM (inactive)
RPMI-8226
  GI50: 23.8 µM (inactive)
SNB-75
  GI50: 17.4 µM (inactive)
OVCAR-8
  GI50: 18.1 µM (inactive)
786-0
  GI50: 16.7 µM (inactive)
BT-549
  GI50: 19.5 µM (inactive)
MCF7
  GI50: 12.9 µM (inactive)
SF-295
  GI50: 19.6 µM (inactive)
LOX IMVI
  GI50: 17.9 µM (inactive)
HOP-92
  GI50: 17.7 µM (inactive)
MDA-MB-231
  GI50: 19.9 µM (inactive)
HCT-116
  GI50: 15.2 µM (inactive)
SK-MEL-2
  GI50: 18.6 µM (inactive)
UO-31
  GI50: 14.6 µM (inactive)
SN12C
  GI50: 16.6 µM (inactive)
NCI-H226
  GI50: 16 µM (inactive)
SK-MEL-28
  GI50: 16.6 µM (inactive)
HT-29
  GI50: 15.3 µM (inactive)
HCT-15
  GI50: 17.1 µM
HCC 2998
  GI50: 21.2 µM (inactive)
NCI-H460
  GI50: 20.4 µM (inactive)
OVCAR-3
  GI50: 18.5 µM (inactive)
MOLT-4
  GI50: 20.2 µM (inactive)
CAKI-1
  GI50: 19.8 µM (inactive)
A498
  GI50: 21.3 µM (inactive)
IGROV-1
  GI50: 17.3 µM (inactive)
DU-145
  GI50: 20.9 µM (inactive)
A549
  GI50: 19.6 µM (inactive)
M14
  GI50: 18 µM (inactive)
OVCAR-5
  GI50: 20.3 µM (inactive)
Malme-3M
  GI50: 18 µM (inactive)
T47D
  GI50: 19 µM (inactive)
TK-10
  GI50: 12.3 µM (inactive)
NCI/ADR-RES
  GI50: 18.2 µM (inactive)
HOP-62
  GI50: 19.5 µM (inactive)
SNB-19
  GI50: 19.1 µM (inactive)
RXF 393
  GI50: 18.5 µM (inactive)
Hs-578T
  GI50: 17.6 µM (inactive)
U-251
  GI50: 18.6 µM (inactive)
COLO 205
  GI50: 19 µM (inactive)
OVCAR-4
  GI50: 18.1 µM (inactive)

## COc1cc(NCCC2CCCCN2)c2ncccc2c1 (stereo not drawn)
KM12
  GI50: 60.4 µM (inactive)
UACC-257
  GI50: 19.4 µM (inactive)
SF-539
  GI50: > 100 µM (inactive)
MDA-MB-435
  GI50: 26.4 µM (inactive)
NCI-H522
  GI50: 55.7 µM (inactive)
ACHN
  GI50: > 100 µM (inactive)
HL-60
  GI50: 3.56 µM (inactive)
CCRF-CEM
  GI50: 25.1 µM (inactive)
EKVX
  GI50: > 100 µM (inactive)
PC-3
  GI50: 74.5 µM (inactive)
K562
  GI50: > 44.2 µM (inactive)
UACC-62
  GI50: 24.8 µM (inactive)
SF-268
  GI50: > 92.7 µM (inactive)
MDA-N
  GI50: 36.3 µM (inactive)
SW-620
  GI50: > 70.6 µM (inactive)
NCI-H23
  GI50: > 100 µM (inactive)
SK-OV-3
  GI50: > 100 µM (inactive)
SK-MEL-5
  GI50: 25.1 µM (inactive)
SR
  GI50: 27.3 µM (inactive)
RPMI-8226
  GI50: > 48.3 µM (inactive)
SNB-75
  GI50: 60.3 µM (inactive)
OVCAR-8
  GI50: > 100 µM (inactive)
786-0
  GI50: > 82 µM (inactive)
BT-549
  GI50: > 100 µM (inactive)
MCF7
  GI50: 0.31 µM (active)
SF-295
  GI50: 67.1 µM (inactive)
LOX IMVI
  GI50: 52.2 µM (inactive)
HOP-92
  GI50: 60.8 µM (inactive)
MDA-MB-231
  GI50: 34.8 µM (inactive)
HCT-116
  GI50: 36 µM (inactive)
SK-MEL-2
  GI50: > 55.7 µM (inactive)
UO-31
  GI50: 57.1 µM (inactive)
SN12C
  GI50: > 49.4 µM (inactive)
NCI-H226
  GI50: > 63.8 µM (inactive)
SK-MEL-28
  GI50: 29.2 µM (inactive)
HT-29
  GI50: 41.7 µM (inactive)
HCT-15
  GI50: > 74.3 µM
HCC 2998
  GI50: 16.4 µM (inactive)
NCI-H460
  GI50: 39.7 µM (inactive)
OVCAR-3
  GI50: 4.63 µM (inactive)
MOLT-4
  GI50: 7.11 µM (inactive)
CAKI-1
  GI50: > 77.1 µM (inactive)
A498
  GI50: 53.2 µM (inactive)
IGROV-1
  GI50: 8.87 µM (inactive)
DU-145
  GI50: > 76.9 µM (inactive)
A549
  GI50: > 96.6 µM (inactive)
M14
  GI50: 21.5 µM (inactive)
OVCAR-5
  GI50: > 100 µM (inactive)
Malme-3M
  GI50: 26.9 µM (inactive)
T47D
  GI50: 0.397 µM (active)
TK-10
  GI50: > 73.6 µM (inactive)
NCI/ADR-RES
  GI50: > 100 µM (inactive)
HOP-62
  GI50: > 96.4 µM (inactive)
SNB-19
  GI50: > 100 µM (inactive)
RXF 393
  GI50: 22.2 µM (inactive)
Hs-578T
  GI50: > 96.4 µM (inactive)
U-251
  GI50: 56.4 µM (inactive)
COLO 205
  GI50: 13.5 µM (inactive)
OVCAR-4
  GI50: > 70.5 µM (inactive)

Source: ChEMBL document CHEMBL1201862, “PubChem BioAssay data set” (2004)
